Entries after “also recorded” stand apart in the source; their conditions may differ. Like-named read-outs stand apart in the source and are kept apart here.
Columns and labels:
[1] = tested on: IKKα-driven p100 phosphorylation in U2OS cells; assay: FCS-stimulated p100 phosphorylation (Ser866/870) in U2OS cells, Western blot; format: cell-based, human; conditions: 1 h pretreatment, FCS (10%) for 4 h, blots quantified, read-out: IC50 for inhibition of p100 phosphorylation
Procedure: (§1) Two IKKβ-dependent readouts were selected to assess selectivity over IKKβ. First, TNFα stimulates IκBα degradation through activation of IKKβ and if IKKβ is inhibited, then a band corresponding to the IκBα protein should be evident by Western analysis. Second, IKKβ phosphorylates p65 on Ser536, which can also be assessed by Western blot analysis. Only at the highest concentration (100 μM) of 48 was IκBα degradation and p65 (Ser536) phosphorylation inhibited (Figure 9b). Even at this high concentration, these effects were not apparent following pretreatment with 47 (Figure 10b).
(§2) Figure 9 Effect of compound 48 on (a) FCS-stimulated noncanonical and (b) TNF-α-induced canonical NF-kB activation in U2OS cells. Cells were pretreated with 48 1 h prior to stimulation with FCS (10%) for 4 h or TNF-α (10 ng/mL) for 30 min. Whole cell lysate were prepared, separated by SDS-PAGE, and assessed for (a) inhibition of p100 phosphorylation (Ser866/870) and (b) IkB-α and p-p65 (Ser536) status. […] The results are representative of three independent experiments.
as §2, with “10” for “9”, “47” for “48”
(§3) U2OS cells were cultured with McCoy’s 5A modified medium and MEF were cultured with DEME medium containing 10% (v/v) FCS and medium was changed every 2 d thereafter until cells became confluent. Cells were incubated at 37 °C in humidified air with 5% CO2 and rendered quiescent by serum deprivation for 24 h prior to stimulation in serum-free medium.
(§4) Whole cell lysates were prepared from U2OS and status of IκBα, p65, p-p65 (Ser536), and p-p100 (Ser 866/870) assessed by Western blotting as described in Mackenzie et al. (2007).[46]

[2] = tested on: IKKβ-dependent IκBα degradation in U2OS cells; assay: TNFα-induced IκBα degradation in U2OS cells, Western blot; format: cell-based, human; conditions: highest concentration 100 μM, TNF-α (10 ng/mL) 30 min
Procedure: as §1
(§5) Figure 9 Effect of compound 48 on (a) FCS-stimulated noncanonical and (b) TNF-α-induced canonical NF-kB activation in U2OS cells. […] Whole cell lysate were prepared, separated by SDS-PAGE, and assessed for (a) inhibition of p100 phosphorylation (Ser866/870) and (b) IkB-α and p-p65 (Ser536) status. […]
as §5, with “10” for “9”, “47” for “48”
as §4

[3] = tested on: IKKα-regulated NF-κB transcriptional activation in IKKβ−/− MEFs; assay: IL-1β-stimulated NF-κB-luciferase transcriptional activity in IKKβ knockout MEFs; format: cell-based, mouse; conditions: maximal concentrations of 50–100 μM
Procedure: To provide further evidence for cellular activity, mouse embryonic fibroblasts lacking the IKKβ kinase subunit were utilized to investigate the potency of both compounds against agonist-stimulated IKKα-regulated NF-κB transcriptional activation. Cells were infected with an adenovirus encoding an NF-κB-luciferase promoter gene. NF-κB transcriptional activity driven by IKKα was stimulated specifically using IL-1β,[41] and the ability of the compounds to inhibit this response was assessed. […] As IKKα plays a lesser role in the canonical NF-κB cascade,[42] particularly the rapid and transient stimulated degradation of IκBα, selective IKKα inhibitors should not affect TNF-α induced IκBα degradation and p65 phosphorylation.
as §3
An adenoviral vector encoding NFκB-luciferase (Adv.NFκB-Luc) was purchased from Vector Biolabs (University of Pennsylvania, Philadelphia, US). Large-scale production of high titer recombinant adenovirus was performed by routine methods.[47] IKKβ knockout mouse embryonic fibroblasts (MEFs; kindly provided by Prof. I. Verma, UCSD, USA) were counted when approximately 60–70% confluent in T75 cm^2 flasks and infected with adenovirus up to 300 pfu/cell^–1 for 24 h in 10% DMEM. Cells were then lifted from the flasks and plated into 96-well clear bottom, black luciferase plates and allowed to settle for 24 h before serum starved overnight. Cells were then stimulated with the appropriate agonists for the indicated times and reactions terminated by addition of lysis buffer containing 0.2 mM luciferin substrate. Relative light units (RLU) were measured using a Trilux microbeta counter (luminometer).

ALK(h) = molecular target: T1, ALK(h) (Homo sapiens, UniProt Q9UM73); assay: Millipore Kinase Profiler, single concentration; format: biochemical; conditions: duplicate assay points, read-out: % residual activity
T1 construct: purchased Millipore KinaseProfiler
Source text: (§6) Kinase profiling of compound 48 was outsourced to Millipore, specifically the Kinase Profiler Customer Service for single concentration studies using duplicate assay points.

Abl(h) = molecular target: T2, Abl(h) (Homo sapiens, UniProt P00519); assay: Millipore Kinase Profiler, single concentration; format: biochemical; conditions: duplicate assay points, read-out: % residual activity
T2 construct: purchased Millipore KinaseProfiler
T2 sequence (P00519 whole entry): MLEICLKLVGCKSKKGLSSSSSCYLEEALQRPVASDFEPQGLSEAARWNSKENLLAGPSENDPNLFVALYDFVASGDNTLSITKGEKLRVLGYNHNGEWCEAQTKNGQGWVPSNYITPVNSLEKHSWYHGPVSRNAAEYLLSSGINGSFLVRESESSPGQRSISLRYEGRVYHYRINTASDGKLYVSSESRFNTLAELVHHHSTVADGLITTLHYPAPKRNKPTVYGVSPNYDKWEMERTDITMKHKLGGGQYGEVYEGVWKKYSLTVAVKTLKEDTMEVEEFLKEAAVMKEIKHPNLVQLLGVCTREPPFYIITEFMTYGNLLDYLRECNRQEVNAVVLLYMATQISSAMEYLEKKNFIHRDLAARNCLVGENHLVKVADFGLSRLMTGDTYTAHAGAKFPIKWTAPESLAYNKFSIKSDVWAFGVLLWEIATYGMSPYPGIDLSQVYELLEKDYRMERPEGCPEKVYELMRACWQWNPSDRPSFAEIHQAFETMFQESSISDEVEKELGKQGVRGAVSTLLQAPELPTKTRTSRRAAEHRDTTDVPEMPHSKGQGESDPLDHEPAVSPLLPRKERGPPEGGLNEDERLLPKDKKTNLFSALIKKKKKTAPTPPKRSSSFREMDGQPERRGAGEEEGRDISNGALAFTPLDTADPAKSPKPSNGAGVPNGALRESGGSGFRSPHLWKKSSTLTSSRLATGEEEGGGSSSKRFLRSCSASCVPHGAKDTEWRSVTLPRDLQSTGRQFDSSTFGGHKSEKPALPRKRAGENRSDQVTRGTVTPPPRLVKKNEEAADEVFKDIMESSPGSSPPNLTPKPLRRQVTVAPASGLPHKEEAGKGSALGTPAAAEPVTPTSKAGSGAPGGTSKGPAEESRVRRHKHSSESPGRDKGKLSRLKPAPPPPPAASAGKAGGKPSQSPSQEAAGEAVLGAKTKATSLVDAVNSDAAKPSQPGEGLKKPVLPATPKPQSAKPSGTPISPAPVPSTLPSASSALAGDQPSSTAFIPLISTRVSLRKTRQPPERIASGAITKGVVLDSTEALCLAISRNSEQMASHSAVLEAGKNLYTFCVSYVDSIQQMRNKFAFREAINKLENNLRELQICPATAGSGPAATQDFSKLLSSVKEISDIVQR
Source text: as §6

CHK1(h) = molecular target: T3, CHK1(h) (Homo sapiens, UniProt O14757); assay: Millipore Kinase Profiler, single concentration; format: biochemical; conditions: duplicate assay points, read-out: % residual activity
T3 construct: purchased Millipore KinaseProfiler
T3 sequence (O14757 whole entry): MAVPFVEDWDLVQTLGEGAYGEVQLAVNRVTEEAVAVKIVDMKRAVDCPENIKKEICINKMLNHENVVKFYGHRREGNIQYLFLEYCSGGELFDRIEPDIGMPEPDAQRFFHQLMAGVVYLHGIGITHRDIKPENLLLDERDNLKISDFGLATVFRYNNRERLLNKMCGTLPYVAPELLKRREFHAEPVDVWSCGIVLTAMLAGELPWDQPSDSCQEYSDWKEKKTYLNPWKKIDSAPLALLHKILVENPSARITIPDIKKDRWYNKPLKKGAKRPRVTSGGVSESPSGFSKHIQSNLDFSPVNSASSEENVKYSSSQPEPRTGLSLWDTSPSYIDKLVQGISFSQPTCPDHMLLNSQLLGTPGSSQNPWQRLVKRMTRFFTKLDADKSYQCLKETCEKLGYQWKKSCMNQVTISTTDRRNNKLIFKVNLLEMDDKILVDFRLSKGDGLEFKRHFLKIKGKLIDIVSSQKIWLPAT
Source text: as §6

DAPK1(h) = molecular target: T4, DAPK1(h) (Homo sapiens, UniProt P53355); assay: Millipore Kinase Profiler, single concentration; format: biochemical; conditions: duplicate assay points, read-out: % residual activity
T4 construct: purchased Millipore KinaseProfiler
Source text: as §6

IR(h) = molecular target: T5, IR(h) (Homo sapiens, UniProt P06213); assay: Millipore Kinase Profiler, single concentration; format: biochemical; conditions: duplicate assay points, read-out: % residual activity
T5 construct: purchased Millipore KinaseProfiler
T5 sequence (P06213 28-1382): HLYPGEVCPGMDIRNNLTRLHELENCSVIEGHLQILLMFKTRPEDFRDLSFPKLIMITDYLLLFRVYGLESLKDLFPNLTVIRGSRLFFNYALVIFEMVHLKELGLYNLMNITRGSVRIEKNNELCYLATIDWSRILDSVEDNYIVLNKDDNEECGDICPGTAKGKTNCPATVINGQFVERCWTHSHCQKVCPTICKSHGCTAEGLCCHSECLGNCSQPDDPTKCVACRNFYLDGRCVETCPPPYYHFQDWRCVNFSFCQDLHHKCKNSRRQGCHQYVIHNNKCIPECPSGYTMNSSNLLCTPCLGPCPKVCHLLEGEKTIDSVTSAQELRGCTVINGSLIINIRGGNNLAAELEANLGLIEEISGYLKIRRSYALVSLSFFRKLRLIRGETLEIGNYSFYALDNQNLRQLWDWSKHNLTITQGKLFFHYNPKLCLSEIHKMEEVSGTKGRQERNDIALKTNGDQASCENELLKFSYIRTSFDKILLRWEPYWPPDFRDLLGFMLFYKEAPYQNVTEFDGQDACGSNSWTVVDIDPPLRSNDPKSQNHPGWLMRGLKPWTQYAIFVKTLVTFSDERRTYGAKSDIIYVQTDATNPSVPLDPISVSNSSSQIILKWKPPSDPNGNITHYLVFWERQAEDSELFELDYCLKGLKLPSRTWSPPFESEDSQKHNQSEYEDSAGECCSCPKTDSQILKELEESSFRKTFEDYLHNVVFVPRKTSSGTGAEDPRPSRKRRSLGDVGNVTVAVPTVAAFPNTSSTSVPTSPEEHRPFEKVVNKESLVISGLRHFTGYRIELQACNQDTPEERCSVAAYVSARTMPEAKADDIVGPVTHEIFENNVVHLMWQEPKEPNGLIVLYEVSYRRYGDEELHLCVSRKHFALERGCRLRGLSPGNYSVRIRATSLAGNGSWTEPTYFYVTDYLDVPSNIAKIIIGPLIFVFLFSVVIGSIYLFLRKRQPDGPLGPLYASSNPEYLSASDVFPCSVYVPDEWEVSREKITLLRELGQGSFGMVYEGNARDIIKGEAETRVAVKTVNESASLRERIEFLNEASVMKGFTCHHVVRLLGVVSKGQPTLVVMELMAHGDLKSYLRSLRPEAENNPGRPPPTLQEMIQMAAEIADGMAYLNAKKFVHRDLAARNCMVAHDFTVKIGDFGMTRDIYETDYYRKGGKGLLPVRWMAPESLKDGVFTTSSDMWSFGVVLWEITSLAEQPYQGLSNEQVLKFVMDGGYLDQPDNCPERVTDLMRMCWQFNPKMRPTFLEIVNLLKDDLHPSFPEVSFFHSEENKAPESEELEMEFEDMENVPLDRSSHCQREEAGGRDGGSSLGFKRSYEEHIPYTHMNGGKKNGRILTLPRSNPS
Source text: as §6

PAK2(h) = molecular target: T6, PAK2(h) (Homo sapiens, UniProt Q13177); assay: Millipore Kinase Profiler, single concentration; format: biochemical; conditions: duplicate assay points, read-out: % residual activity
T6 construct: purchased Millipore KinaseProfiler
T6 sequence (Q13177 whole entry): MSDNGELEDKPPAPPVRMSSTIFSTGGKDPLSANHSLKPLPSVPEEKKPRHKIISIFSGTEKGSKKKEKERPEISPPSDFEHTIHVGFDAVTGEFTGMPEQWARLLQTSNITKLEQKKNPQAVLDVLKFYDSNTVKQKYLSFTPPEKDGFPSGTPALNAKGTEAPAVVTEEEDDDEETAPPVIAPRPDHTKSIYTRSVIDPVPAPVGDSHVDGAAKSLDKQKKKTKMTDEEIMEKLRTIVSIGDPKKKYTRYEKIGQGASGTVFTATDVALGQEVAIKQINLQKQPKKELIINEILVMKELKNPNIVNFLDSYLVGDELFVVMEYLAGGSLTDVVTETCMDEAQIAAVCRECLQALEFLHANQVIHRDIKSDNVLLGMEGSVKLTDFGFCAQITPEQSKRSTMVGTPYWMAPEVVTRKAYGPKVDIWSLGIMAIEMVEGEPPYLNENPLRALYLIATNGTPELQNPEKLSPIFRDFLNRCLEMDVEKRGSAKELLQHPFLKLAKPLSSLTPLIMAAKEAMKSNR
Source text: as §6

PKCα(h) = molecular target: T7, PKCα(h) (Homo sapiens, UniProt P17252); assay: Millipore Kinase Profiler, single concentration; format: biochemical; conditions: duplicate assay points, read-out: % residual activity
T7 construct: purchased Millipore KinaseProfiler
Source text: as §6

PKCη(h) = molecular target: T8, PKCη(h) (Homo sapiens, UniProt P24723); assay: Millipore Kinase Profiler, single concentration; format: biochemical; conditions: duplicate assay points, read-out: % residual activity
T8 construct: purchased Millipore KinaseProfiler
Source text: as §6

PKCμ(h) = molecular target: T9, PKCμ(h) (Homo sapiens, UniProt Q15139); assay: Millipore Kinase Profiler, single concentration; format: biochemical; conditions: duplicate assay points, read-out: % residual activity
T9 construct: purchased Millipore KinaseProfiler
T9 sequence (Q15139 whole entry): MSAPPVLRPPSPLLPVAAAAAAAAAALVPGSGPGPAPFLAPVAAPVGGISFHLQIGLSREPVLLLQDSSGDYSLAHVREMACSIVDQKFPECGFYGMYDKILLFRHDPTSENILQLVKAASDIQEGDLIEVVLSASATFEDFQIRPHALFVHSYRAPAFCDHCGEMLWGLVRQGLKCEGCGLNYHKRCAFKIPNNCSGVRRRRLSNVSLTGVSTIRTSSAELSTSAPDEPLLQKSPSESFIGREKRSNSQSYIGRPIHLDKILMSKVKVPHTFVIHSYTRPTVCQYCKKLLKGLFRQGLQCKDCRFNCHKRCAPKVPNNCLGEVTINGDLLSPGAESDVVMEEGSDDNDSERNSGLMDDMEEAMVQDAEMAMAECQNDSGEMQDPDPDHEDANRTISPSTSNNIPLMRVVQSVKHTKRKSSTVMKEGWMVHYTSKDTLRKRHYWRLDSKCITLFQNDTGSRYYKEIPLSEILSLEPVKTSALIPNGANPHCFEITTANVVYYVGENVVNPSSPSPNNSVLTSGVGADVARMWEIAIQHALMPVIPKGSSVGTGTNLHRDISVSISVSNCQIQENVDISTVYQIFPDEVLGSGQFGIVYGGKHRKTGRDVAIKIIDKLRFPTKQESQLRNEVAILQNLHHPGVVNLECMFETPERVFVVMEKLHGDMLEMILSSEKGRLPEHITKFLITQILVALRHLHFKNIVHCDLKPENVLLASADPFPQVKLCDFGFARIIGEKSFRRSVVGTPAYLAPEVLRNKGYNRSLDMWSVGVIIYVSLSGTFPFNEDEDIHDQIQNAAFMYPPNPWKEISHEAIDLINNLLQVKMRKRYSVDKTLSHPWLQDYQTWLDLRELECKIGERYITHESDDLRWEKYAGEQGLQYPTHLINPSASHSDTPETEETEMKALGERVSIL
Source text: as §6

TBK1(h) = molecular target: T10, TBK1(h) (Homo sapiens, UniProt Q9UHD2); assay: Millipore Kinase Profiler, single concentration; format: biochemical; conditions: duplicate assay points, read-out: % residual activity
T10 construct: purchased Millipore KinaseProfiler
Source text: as §6

c-RAF(h) = molecular target: T11, c-RAF(h) (Homo sapiens, UniProt P04049); assay: Millipore Kinase Profiler, single concentration; format: biochemical; conditions: duplicate assay points, read-out: % residual activity
T11 construct: purchased Millipore KinaseProfiler
Source text: as §6

IC50 [1]: 5.8 µM
IC50 ([1]; Homo sapiens, U2OS): 8.8 µM
effect on NF-κB transcriptional activity [3]: abolished transcriptional activity
remaining activity at 10 µM (ALK(h)): 84%
remaining activity at 10 µM (Abl(h)): 69%
remaining activity at 10 µM (CHK1(h)): 58%
remaining activity at 10 µM (DAPK1(h)): 99%
remaining activity at 10 µM (IR(h)): 89%
remaining activity at 10 µM (PAK2(h)): 73%
remaining activity at 10 µM (PKCα(h)): 41%
remaining activity at 10 µM (PKCη(h)): 53%
remaining activity at 10 µM (PKCμ(h)): 10%
remaining activity at 10 µM (TBK1(h)): 54%
remaining activity at 10 µM (c-RAF(h)): 37%
Compound: N#Cc1c[nH]c2nc(N)nc(-c3ccc(S(N)(=O)=O)cc3)c12 [Compound 48, 4-(2-Amino-5-cyano-7H-pyrrolo[2,3-d]pyrimidin-4-yl)benzenesulfonamide]
inhibition of TNFα-stimulated IκBα degradation [2]: inhibited; also recorded: small effect
% stim ([3]; Il-1β+DMSO = 100%): −40.9 ± 4.6%

From publication PMC5578373, “Inhibitory Kappa B Kinase α (IKKα) Inhibitors That Recapitulate Their Selectivity in Cells against Isoform-Related Biomarkers” (Journal of Medicinal Chemistry, 2017)
